Data set [1] deals with mice oocytes contacted with mice sperm cells. Briefly: In vitro fertilization, mouse (Example 3). It is filed as cell-based. On the procedure:
In vitro fertilization (IVF) studies were conducted to determine whether the activator compound No. 1 has any adverse effects on the fertilization process. Male mice were sacrificed, and the epididymis was opened to release the sperm into the appropriate buffer in a petri dish. The sperm cells were incubated with 50 μM of the activator compound for one hour before an aliquot was transferred to a petri dish containing oocytes. The cells were further incubated at 37° C. and 1-cell/2-cell eggs were counted after 24 hours. The experiment was performed in duplicates using sperm from the same epididymis and oocytes from two different mice.

Data set [2] relates to boar sperm. The experiment in a line: Determination of boar sperm motility and progressive motility by CASA (Example 1). Format: cell-based, Duroc boar. The conditions noted are these: for EC50: 0.2 h, 12 min at 37° C., activation-% relative to DMSO-only control. The procedure:
Duroc boar sperm samples were received from Norsvin AS and contained pooled semen from three individual boars. Semen samples were stored in Androstar® extender (mini-tube) at 18° C. prior to use. Compound No. 1 was tested in duplicates, using 2-fold serial dilutions including 10 individual concentrations starting from 100 μM. 995 μL semen were aliquoted in Eppendorf tubes and 5 μL of Compound No. 1 diluted in DMSO were added leading to the described final concentrations. The resulting semen samples were mixed gently and incubated for 12 min at 37° C. in a water bath. Subsequently, 10 μL of each semen sample was added to a counting chamber slide (Leja) and incubated on a plate incubator at 37° C. Sperm motility, progressive motility and curvilinear velocity were determined using a CASA (Hamilton Thorne), starting from 14 min. For each chamber A and B 15 individual frames were analysed and motility as well as progressive motility data was read out. The data were converted into activation-% using DMSO-only controls (set to 100% activity) by determining the percental increase of either motility or progressive motility relative to the control sample without added Compound No. 1. For the determination of EC50 values, data were fitted using Prism8 (non-linear fit, absolute IC50, x is concentration, graphpad.com).

The next data set deals with Human T-cells. Briefly: Genotoxicity, comet assay (Example 4). Format: cell-based. The procedure:
Human T-cells (four concentrations of Compound No. 1 including 0 μM; two exposure times) were embedded in 1% agarose, lysed in cold 2.5 M NaCl, 0.1 M EDTA, 10 mM Tris buffer, and 1% Triton X-100, pH 10. Incubation with dithiothreitol and lithium diiodosalicylate was followed by incubation in cold 0.3M NaOH, and 1 mM EDTA for 20 min and then electrophoresis at 0.8 V/cm for 20 min in a cold room. After neutralization with PBS, and staining with SYBRGold (Invitrogen), slides were scored using the Comet Assay IV image analysis programme (Perceptive Instruments).

The subject of data set [3] is sows. Briefly: Field trial pilot study, artificial insemination of sows (Example 5). Format: in vivo, pig. The procedure:
A pilot field study included 27 sows of which 13 received untreated control sperm and 14 received sperm treated with Compound No. 1 (“activator”). Insemination doses were collected from the same animals during the course of the experiment and contained pooled semen from three individual boars. 45 μl 100 mM activator solution in DMSO was added to 89 ml boar sperm (final concentration of 50 μM) directly before insemination which was carried out within 15 to 45 min. The sperm was transferred to an insemination bottle and then the activator was added. After placing the insemination catheter into the cervix of the sow, the bottle was connected, and the sperm sample was released into the sow. The sows received insemination doses on two subsequent days. After 30 to 35 days the animals were sacrificed, the uteri were removed and embryos were counted for all […]. Organ material from 5 activator-receiving sows and 5 sows from the control group were optically inspected and samples from the uterus, cervix and vagina were formalin-fixated for histology examination. […] The formalin preparations were cut and stained with hematoxylin eosin for histological examination. The histopathological assessment included a thorough evaluation of the epithelium of the mucosa and the underlying lamina propria. In both the epithelium and lamina propria, particular emphasis was placed on acute changes. In the epithelium, the acute changes included single cell necrosis/apoptosis and infiltration of polymorphonuclear leukocytes. In the lamina propria, infiltration of polymorphonuclear leukocytes was considered as the most important acute change. […] Infiltration of lymphocytes in the epithelium and lamina propria was considered to be within the normal range of all individuals. Flattening and possibly loss of surface epithelium were partly difficult to assess. Edema and bleeding in the lamina propria were detected in several individuals. Heat and age are the denominators of leukocyte infiltration in sows and are considered normal. The average number of embryos was determined for the sows of the control group (n=11, 11 sows were in pig after insemination) and the activator-receiving group (n=13, 13 sows in pig after insemination).

The subject of data set [4] is sows. The experiment in a line: Field trial study, 441 sows (Example 6). It is filed as in vivo, pig. From the text: Following the success of the pilot study reported in Example 5, a larger field trial study was conducting which included 441 sows. 224 sows received untreated control sperm and 217 received sperm treated with Compound No. 1 (“activator”).
The test system of data set [5] is boar sperm. The experiment in a line: Effect of long-term storage at 18° C. on boar sperm, activator freshly added (Example 2). It is filed as cell-based. On the procedure:
The effect of Compound No. 1 (“activator”) on the shelf-life of boar sperm was evaluated. Compound No. 1 was freshly added to stored boar sperm aliquots. The sperm samples were stored as aliquots in Eppendorf tubes (995 μl) at 18° C. During the course of one week 5 μl 10 mM activator solution in DMSO (50 μM final concentration) was added to one aliquot and the resulting solution was incubated in a water bath at for 12 min at 37° C. Subsequently, 10 μl semen samples were taken out and added to a counting chamber slide, incubated for 2 min at 37° C. and analysed as described in Example 1.

Where [6] appears, read: 217 sows with treated sperm vs 224 sows with untreated control sperm.
Where [7] appears, read: 50 μM added to boar sperm stored at 18° C. for 1 to 8 days, FIG. 2.

Read-outs that look alike come from different tables or passages of the source.

For `O=C(CSc1nnc(-c2c[nH]c3ccccc23)o1)Nc1ccc2c(c1)OCO2` [Compound No. 1], the “interference with the fertilization process” value in data set [1] (50 μM, mouse IVF) is “does not interfere with the fertilization process”. In addition, the “fertility rates vs control” value in data set [1] (mouse sperm incubated with 50 μM for one hour, eggs counted after 24 hours) is “comparable to the control samples”. Also, the EC50 in the data set on boar sperm [2] (n=6, read-out: Absolute EC50 motility) amounted to 3.31 µM; in the data set with boar sperm [2] (n=6, read-out: absolute EC50 progressive motility), 11.2 µM. Further, the motility entry in the data set on boar sperm [2] (FIG. 1B, n=4, up to 100 μM) is “increases both motility and progressive motility in a dose-dependent manner”. In addition, the progressive motility entry in the data set with boar sperm [2] (FIG. 1B, n=4, up to 100 μM) was “increases both motility and progressive motility in a dose-dependent manner”. Further, the “% Tail DNA” value turned out to be 0.2% with Human T-cells (0.5 hr exposure, 5 μM); 0.6% in the data set with Human T-cells (0.5 hr exposure, 50 μM); 0.4% in the data set on Human T-cells (0.5 hr exposure, 500 μM); 0.5% in the data set with Human T-cells (3 hr exposure, 5 μM); 0.1% with Human T-cells (3 hr exposure, 50 μM); 0.2% with Human T-cells (3 hr exposure, 500 μM). Besides, the genotoxic effects entry in the data set on Human T-cells (up to 500 μM, 0.5 and 3 hr exposure) was “No genotoxic effects”. For the same molecule, the “optical inspection of organ material (cervix, uteri, vaginae)” value in the data set on sows [3] (5 activator-receiving sows, 30 to 35 days after insemination with sperm treated at 50 μM) was “mostly normal mucosa and no signs of lesions”. For the same molecule, the “sows in pig after insemination” value in the data set on sows [3] (of 14 sows receiving sperm treated at 50 μM (control 11 of 13)) worked out at 13. In addition, the “sows with abundant infiltration of polymorphonuclear leukocytes mostly in the cervix and uterus” value in the data set on sows [3] (of five sows in the activator group (control: one sow), histology) is “Three of the five sows”. For the same molecule, the “sows with necrosis/apoptosis detected” value in the data set with sows [3] (of five sows in the activator-receiving group (control: one), histology) was “one of the sows”. Besides, in the data set on sows [3] (sperm treated at 50 μM vs untreated control sperm), the “pregnancy rates in the sows” value was “increase pregnancy rates”. The “average increase of embryos per sow” value with sows [3] (vs control group, embryos counted after 30 to 35 days, FIG. 5) was found to be 2 embryos per sows. Moreover, the “average increase in live piglets born per sow” value with sows [4] (setting [6]) was roughly 1 live piglet born per sow. The “increase in pregnancy rate” value with sows [4] (setting [6]) is given as 5%. Moreover, the “weaning to service interval (WSI)” value with sows [4] (treated vs untreated control sperm) is listed as “improved the weaning to service interval”. The “motility of stored sperm samples” value with boar sperm [5] (setting [7]) was “increases motility and progressive motility, even after 7 days of storage”. Further, the “progressive motility of stored sperm samples” value in the data set with boar sperm [5] (setting [7]) is “increases motility and progressive motility, even after 7 days of storage”. Further, in the data set with boar sperm [5] (50 μM, storage at 18° C.), the “boar sperm shelf life” value was “has a positive impact on boar sperm shelf life”.
`OO` [H2O2, reference compound]: the “% Tail DNA” value in the data set with Human T-cells (Control+ treatment) came to 75.4%.

Source of the values: patent US12616193B2, “5-(1H-indol-3-yl)-oxazole, -oxadiazole and -furan derivatives as enhancers of sperm motility” (SPERMATECH AS, priority 2020, dated 2026).
